The values that follow come from article PMC3098952 (Bioorganic & medicinal chemistry letters, 2011).

Molecules are shown by their SMILES.

In one assay the target is EcMetAP. Conditions: read-out: Reported affinity of metal for EcMetAP; ref [30], [31]; cited from earlier work.
A further assay concerns the target AbMetAPx (Acinetobacter baumannii, UniProt A0A7U4DGZ4). Description: Activation of and metal binding to AbMetAPx by divalent metal ions. It is filed as biochemical, Acinetobacter baumannii ATCC 17978. The settings on record: Met-AMC fluorescence assay, enzyme 1 µM.
For another assay, the target named is AbMetAPy (Acinetobacter baumannii, UniProt V5VCW7). Description: Activation of and metal binding to AbMetAPy by divalent metal ions. The settings on record: Met-AMC fluorescence assay, enzyme 1 µM. Format: biochemical, Acinetobacter baumannii ATCC 17978.

Take `[Fe+2]` [Fe(II)]: at EcMetAP, the Kd is 200 nM. Turning to `[Zn+2]` [Zn (II)], the “Activation of AbMetAPx by metal ion” value at AbMetAPx is “no activation”. Besides, the “Activation of AbMetAPy by metal ion” value at AbMetAPy was “no activation”. With `[Mn+2]` [Mn(II)], the Kd at EcMetAP is 6000 nM. In the case of `[Co+2]` [Co(II)], the Kd on EcMetAP is 300 nM.
